Measured values reported in the NIST ThermoML archive (doi:10.1007/s10765-005-5572-8).

Columns and labels:
[1] = xn = mol fraction of the nth substance listed; conditions: 298.15 K, 101 kPa, Liquid
[2] = 298.15 K; 101 kPa; Liquid
[3] = refractive index (Na D-line) (dimensionless); conditions: 298.15 K; 101.33 kPa; Liquid; Standard Abbe refractometry
[4] = refractive index (Na D-line) (dimensionless); xn = mol fraction of the nth substance listed; conditions: 298.15 K, 101 kPa, Liquid, Standard Abbe refractometry

C1CCCCC1 [cyclohexane] + CCCCCC
[1]
Conditions | mass density [kg/m3] | viscosity [mPa·s]
x1 = 0.0357 | 658.2 | 0.295
x1 = 0.1127 | 665.9 | 0.301
x1 = 0.2 | 674.9 | 0.312
x1 = 0.3288 | 688.6 | 0.342
x1 = 0.462 | 703.5 | 0.405
x1 = 0.5424 | 712.9 | 0.451
x1 = 0.577 | 717 | 0.472
x1 = 0.6703 | 728.4 | 0.539
x1 = 0.7543 | 739.2 | 0.603
x1 = 0.8703 | 754.9 | 0.71
x1 = 0.9451 | 765.5 | 0.794
x1 = 0.974 | 769.7 | 0.842
x1 = 0.9935 | 772.7 | 0.894
x1 = 1 | 773.7 | 0.898

CCCCCCCCCCCCCCCC [hexadecane]
Conditions | mass density [kg/m3] | refractive index | viscosity [mPa·s]
[2] | 770.6 | – | 3.039
[3] | – | 1.434 | –

C1CCCCC1 [cyclohexane]
Conditions | mass density [kg/m3] | refractive index | viscosity [mPa·s]
[2] | 773.7 | – | 0.898
[3] | – | 1.4235 | –

CCCCCCCCCCCCCCCC [hexadecane] + CCCCCC
Conditions | mass density, [1] [kg/m3] | refractive index, [4] | viscosity, [1] [mPa·s]
x1 = 0.0284 | 662.1 | 1.3784 | 0.322
x1 = 0.0757 | 673.3 | 1.386 | 0.382
x1 = 0.1349 | 685.7 | 1.395 | 0.473
x1 = 0.1842 | 694.9 | 1.4006 | 0.559
x1 = 0.266 | 708.4 | 1.4087 | 0.703
x1 = 0.3427 | 719.1 | 1.4147 | 0.864
x1 = 0.4864 | 735.5 | 1.4262 | 1.205
x1 = 0.503 | 737.1 | 1.4266 | 1.24
x1 = 0.6779 | 751.8 | 1.4318 | 1.735
x1 = 0.7546 | 757 | 1.432 | 2.022
x1 = 0.8927 | 765.1 | 1.4322 | 2.562
x1 = 0.9468 | 768 | 1.4332 | 2.805
x1 = 0.9902 | 770.1 | 1.434 | 3.012
x1 = 1 | 770.6 | 1.434 | 3.039

CCCCCC [hexane]
Conditions | mass density [kg/m3] | refractive index | viscosity [mPa·s]
[2] | 654.8 | – | 0.294
[3] | – | 1.3745 | –

CCCCCC [hexane] + CCCCCCCCCCCCCCCC
x2 = 0
Conditions | mass density [kg/m3] | refractive index | viscosity [mPa·s]
[1] | 654.8 | – | 0.294
[4] | – | 1.3745 | –

CC(C)CCCC(C)CCCC(C)CCCCC(C)CCCC(C)CCCC(C)C (stereo not drawn) [2,6,10,15,19,23-hexamethyltetracosane] + CCCCCC
Conditions | mass density, [1] [kg/m3] | refractive index, [4] | viscosity, [1] [mPa·s]
x1 = 0.0144 | 663.9 | 1.3798 | 0.405
x1 = 0.0481 | 682.1 | 1.3904 | 0.593
x1 = 0.0748 | 694.2 | 1.3976 | 0.727
x1 = 0.1218 | 711.9 | 1.4068 | 0.971
x1 = 0.1779 | 728.5 | 1.4153 | 1.413
x1 = 0.2858 | 751.4 | 1.4244 | 2.923
x1 = 0.3695 | 764 | 1.431 | 4.685
x1 = 0.4258 | 770.7 | 1.4349 | 6.068
x1 = 0.5661 | 783.6 | 1.4435 | 10.15
x1 = 0.718 | 793.5 | 1.4468 | 15.59
x1 = 0.807 | 798 | 1.4468 | 19.6
x1 = 0.8939 | 801.7 | 1.447 | 24.32
x1 = 0.9593 | 804.1 | 1.447 | 28.41
x1 = 0.9943 | 805.2 | 1.4472 | 30.74
x1 = 1 | 805.4 | 1.4474 | 31.12

CCCCCC [hexane] + CCCCCCCCCC
x2 = 0
Conditions | mass density [kg/m3] | refractive index | viscosity [mPa·s]
[1] | 654.8 | – | 0.294
[4] | – | 1.3745 | –

CCCCCCCCCC [decane] + CCCCCC
Conditions | mass density, [1] [kg/m3] | refractive index, [4] | viscosity, [1] [mPa·s]
x1 = 0.021 | 657.1 | 1.3755 | 0.296
x1 = 0.0659 | 662 | 1.378 | 0.307
x1 = 0.1584 | 671.3 | 1.382 | 0.337
x1 = 0.233 | 678.1 | 1.3854 | 0.355
x1 = 0.2761 | 681.8 | 1.3871 | 0.377
x1 = 0.3493 | 687.8 | 1.39 | 0.417
x1 = 0.4506 | 695.3 | 1.394 | 0.471
x1 = 0.541 | 701.4 | 1.3973 | 0.518
x1 = 0.6382 | 707.4 | 1.4004 | 0.567
x1 = 0.7836 | 715.6 | 1.4045 | 0.657
x1 = 0.9095 | 722 | 1.408 | 0.772
x1 = 0.9654 | 724.7 | 1.4095 | 0.823
x1 = 0.9936 | 726 | 1.4099 | 0.855
x1 = 1 | 726.2 | 1.41 | 0.859

CCCCCC [hexane] + C1CCCCC1
[1], x2 = 0
Conditions | mass density [kg/m3] | viscosity [mPa·s]
– | 654.8 | 0.294

CC(C)CCCC(C)CCCC(C)CCCCC(C)CCCC(C)CCCC(C)C (stereo not drawn) [2,6,10,15,19,23-hexamethyltetracosane]
Conditions | mass density [kg/m3] | refractive index | viscosity [mPa·s]
[2] | 805.4 | – | 31.12
[3] | – | 1.4474 | –

CCCCCC [hexane] + CC(C)CCCC(C)CCCC(C)CCCCC(C)CCCC(C)CCCC(C)C
x2 = 0
Conditions | mass density [kg/m3] | refractive index | viscosity [mPa·s]
[1] | 654.8 | – | 0.294
[4] | – | 1.3745 | –

CCCCCCCCCC [decane]
Conditions | mass density [kg/m3] | refractive index | viscosity [mPa·s]
[2] | 726.2 | – | 0.859
[3] | – | 1.41 | –
